According to patent US6451576B1, “Sesquiterpene synthases from grand fir (Abies grandis), and methods of use” (Washington State University Research Foundation, priority 1998, dated 2002):

How the values were obtained:
Assay type in all cases: biochemical
[1] = target: T1, δ-Selinene Synthase (ag4) (SEQ ID No. 20) (Abies grandis, UniProt O64404); experiment: Product profile of recombinant δ-selinene synthase in vitro (preparative assay, GLC-MS); settings: from [1-3H]farnesyl diphosphate; total ion current chromatogram
T1 construct: made in house; host or cells: E. coli XL1-Blue/pGAG4 or E. coli BL21(DE3)/pSBAG4
T1 sequence (O64404 1-581): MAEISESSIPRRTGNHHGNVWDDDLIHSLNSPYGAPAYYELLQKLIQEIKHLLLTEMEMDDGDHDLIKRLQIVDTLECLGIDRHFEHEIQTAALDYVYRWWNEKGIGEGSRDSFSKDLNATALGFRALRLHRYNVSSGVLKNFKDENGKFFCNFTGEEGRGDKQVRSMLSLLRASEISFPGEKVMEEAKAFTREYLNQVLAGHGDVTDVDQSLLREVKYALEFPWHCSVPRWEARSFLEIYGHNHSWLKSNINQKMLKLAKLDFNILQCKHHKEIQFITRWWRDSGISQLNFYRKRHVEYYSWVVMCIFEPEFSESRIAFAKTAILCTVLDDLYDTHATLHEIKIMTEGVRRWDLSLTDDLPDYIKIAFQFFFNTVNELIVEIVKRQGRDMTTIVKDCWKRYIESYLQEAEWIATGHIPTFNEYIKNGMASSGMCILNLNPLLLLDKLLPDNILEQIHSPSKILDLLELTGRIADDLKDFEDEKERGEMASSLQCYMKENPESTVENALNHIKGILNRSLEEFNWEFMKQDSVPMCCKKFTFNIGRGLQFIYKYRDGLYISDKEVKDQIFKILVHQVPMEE
Protocol: (§1) For preparative incubations, the assay was scaled to 5 ml containing the total protein extracted from 100 ml of bacterial culture and 30 μM [1-^3H]farnesyl diphosphate, and the incubation time was extended to 8 h. Aliquots of the olefin fraction and the fraction containing oxygenated metabolites (diethyl ether eluate) were evaluated by liquid scintillation counting, and were analyzed by radio-GLC (Croteau, R. & Cane. D. E. (1985) Methods Enzymol. 110, 383-405; Satterwhite, D. M. & Croteau, R. (1988) J. Chromatogr. 452, 61-73) using a Gow-Mac 550P chromatograph that was equipped with a 3.18 mm×3.66 m stainless steel column packed with 5% OV17 (50% phenyl:50% methylsiloxane) on 100/120 mesh Gas Chrom Q (Alltech) and programmed from 150° C. to 220° C. at 2° C./min with He as carrier. The elution of co-injected standards was monitored with the Gow-Mac thermal conductivity detector (250° C. and 150 mA) and the radioactivity signal was continuously monitored with a Nuclear Chicago Model 8731 gas proportional counter; output data were processed using Perkin-Elmer Turbochrom Software.
(§2) Expression of Sesquiterpene Synthase cDNAs AG4 (SEQ ID No:19) and AG5. (SEQ ID No:23) in E. coli. Both putative sesquiterpene cyclase cDNAs (SEQ ID Nos:19 and 23) were expressed in bacterial strains E. coli XL1-Blue/pGAG4, E. coli XL1-Blue/pGAG5, E. coli BL21(DE3)/pSBAG4, and E. coli BL21(DE3)/pSBAG5 as set forth in EXAMPLE 7. Bacteria were grown to A600=0.5 at 37° C. in 5 ml or 100 ml of LB medium supplemented with 100 μg ampicillin/ml or 30 μg kanamycin/ml as determined by the vector. Cultures were then induced by addition of 1 mM isopropyl-1-thio-β-D-galactopyranoside and grown for another 12 h at 20° C. Cells were harvested by centrifugation (2000×g, 10 min) and resuspended in either 1 ml or 5 ml sesquiterpene synthase assay buffer (EXAMPLE 2). Cells were disrupted by sonication (Braun-Sonic 2000 with microprobe at maximum power for 15 seconds at 0-4° C.) and the homogenates were cleared by centrifugation (18,000×g, 10 min). Preparative assays were employed to generate product for GLC-MS analysis, as set forth in EXAMPLE 2, with quantification of composition via the total ion current chromatogram.
Product Profile of Recombinant δ-Selinene Synthase (SEQ ID No:20) In Vitro.

[2] = target: T2, γ-Humulene Synthase (ag5) (SEQ ID No: 24) (Abies grandis, UniProt O64405); experiment: Product profile of recombinant γ-humulene synthase in vitro (preparative assay, GLC-MS); settings: from [1-3H]farnesyl diphosphate; total ion current chromatogram
T2 construct: For further subcloning of the amplified, full-length cDNA into the pSBETa vector for high-level expression, the pGAG5 insert was amplified; made in house; host or cells: E. coli XL1-Blue/pGAG5 or E. coli BL21(DE3)/pSBAG5
T2 sequence (O64405 1-593): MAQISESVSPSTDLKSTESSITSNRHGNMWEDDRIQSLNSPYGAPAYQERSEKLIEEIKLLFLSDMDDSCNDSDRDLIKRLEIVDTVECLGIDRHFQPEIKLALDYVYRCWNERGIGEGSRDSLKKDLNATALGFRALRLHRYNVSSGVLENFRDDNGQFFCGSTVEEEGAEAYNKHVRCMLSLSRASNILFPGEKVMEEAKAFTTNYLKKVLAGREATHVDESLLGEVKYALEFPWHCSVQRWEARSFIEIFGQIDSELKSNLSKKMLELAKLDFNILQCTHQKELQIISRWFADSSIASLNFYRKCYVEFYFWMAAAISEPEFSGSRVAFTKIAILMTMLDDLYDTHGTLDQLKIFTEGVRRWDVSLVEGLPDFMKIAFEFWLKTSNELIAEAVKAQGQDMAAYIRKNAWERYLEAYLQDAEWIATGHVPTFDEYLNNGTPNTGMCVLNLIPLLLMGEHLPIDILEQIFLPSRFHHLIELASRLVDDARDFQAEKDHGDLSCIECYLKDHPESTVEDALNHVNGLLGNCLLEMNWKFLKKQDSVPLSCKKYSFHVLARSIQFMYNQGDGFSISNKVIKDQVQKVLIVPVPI
Protocol: as §1, §2
Product Profile of Recombinant γ-Humulene Synthase (SEQ ID No:24) In Vitro.

[3] = target: T3, γ-humulene synthase (SEQ ID No:24) (Abies grandis, UniProt O64405); experiment: Kinetic parameters, metal ion requirement and substrate specificity of recombinant γ-humulene synthase; settings: GLC-MS
T3 construct: For further subcloning of the amplified, full-length cDNA into the pSBETa vector for high-level expression, the pGAG5 insert was amplified; made in house; host or cells: E. coli XL1-Blue/pGAG5 or E. coli BL21(DE3)/pSBAG5
T3 sequence (O64405 1-593): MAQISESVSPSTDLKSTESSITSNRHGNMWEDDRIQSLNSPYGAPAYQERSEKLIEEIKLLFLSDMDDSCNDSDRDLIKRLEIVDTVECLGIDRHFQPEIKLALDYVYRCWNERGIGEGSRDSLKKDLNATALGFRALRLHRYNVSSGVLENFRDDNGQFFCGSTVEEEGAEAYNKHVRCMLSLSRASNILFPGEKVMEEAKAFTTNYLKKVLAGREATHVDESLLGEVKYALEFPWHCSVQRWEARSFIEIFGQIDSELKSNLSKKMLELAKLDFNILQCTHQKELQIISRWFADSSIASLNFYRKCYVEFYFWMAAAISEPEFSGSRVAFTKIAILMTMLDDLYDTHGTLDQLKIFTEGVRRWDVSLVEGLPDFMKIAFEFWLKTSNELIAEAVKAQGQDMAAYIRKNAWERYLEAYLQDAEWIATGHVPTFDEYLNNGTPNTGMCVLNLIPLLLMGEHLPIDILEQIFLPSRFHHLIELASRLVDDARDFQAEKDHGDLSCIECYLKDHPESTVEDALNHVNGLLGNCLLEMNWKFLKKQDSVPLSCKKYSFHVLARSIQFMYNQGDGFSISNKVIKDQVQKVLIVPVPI
Protocol: (§3) The assay for recombinant sesquiterpene synthase (cyclase) activity was performed in 1 ml of buffer (extraction buffer without MnCl2 or the polymeric adsorbents) containing 3.5 μM [1-^3H]farnesyl diphosphate and the total protein extracted from a 5 ml bacterial culture to produce 10^5-10^6 dpm of product in 2 h at 31° C. The incubation mixture was overlaid with 1 ml pentane to trap volatile products. After incubation, the reaction mixture was extracted with pentane (3×1 ml) and the combined extract was passed through a MgSO4-silica gel column to provide the terpene hydrocarbon fractions as before. The columns were subsequently eluted with 3×1 ml of ether to collect any oxygenated products, and an aliquot of each fraction was taken for liquid scintillation counting to determine conversion rate. The monoterpene synthase and diterpene synthase activity assays were similarly performed as described in detail elsewhere (LaFever, R. E., et al., (1994) Arch. Biochem. Biophys. 313, 139-149; Bohlmann, J., et al., (1997) J. Biol. Chem. 272, 21784-21792; Lewinsohn, E., et al., (1991) Plant Physiol. 96, 38-43).
(§4) The substrate specificity and other kinetic. parameters of γ-humulene synthase (SEQ ID No:24) and δ-selinene synthase (SEQ ID No:20) were investigated in order to confirm the identification and classification of these enzymes. […] Neither of these sesquiterpene synthases requires K^+ or other monovalent cation for activity.
(§5) Substrate specificity of δ-selinene synthase (SEQ ID No:20) and γ-humulene synthase (SEQ ID No:24) was evaluated by comparing farnesyl diphosphate (C15) to geranyl diphosphate (C10) and geranylgeranyl diphosphate (C20) at saturation as precursors of the respective terpene olefins. […] The identities of the monoterpene products produced by the sesquiterpene synthases were determined by GLC-MS and are set forth in FIG. 4.

[4] = target: T4, δ-selinene synthase (SEQ ID No:20) (Abies grandis, UniProt O64404); experiment: Kinetic parameters, metal ion requirement and substrate specificity of recombinant δ-selinene synthase; settings: GLC-MS
T4 construct: made in house; host or cells: E. coli XL1-Blue/pGAG4 or E. coli BL21(DE3)/pSBAG4
T4 sequence (O64404 1-581): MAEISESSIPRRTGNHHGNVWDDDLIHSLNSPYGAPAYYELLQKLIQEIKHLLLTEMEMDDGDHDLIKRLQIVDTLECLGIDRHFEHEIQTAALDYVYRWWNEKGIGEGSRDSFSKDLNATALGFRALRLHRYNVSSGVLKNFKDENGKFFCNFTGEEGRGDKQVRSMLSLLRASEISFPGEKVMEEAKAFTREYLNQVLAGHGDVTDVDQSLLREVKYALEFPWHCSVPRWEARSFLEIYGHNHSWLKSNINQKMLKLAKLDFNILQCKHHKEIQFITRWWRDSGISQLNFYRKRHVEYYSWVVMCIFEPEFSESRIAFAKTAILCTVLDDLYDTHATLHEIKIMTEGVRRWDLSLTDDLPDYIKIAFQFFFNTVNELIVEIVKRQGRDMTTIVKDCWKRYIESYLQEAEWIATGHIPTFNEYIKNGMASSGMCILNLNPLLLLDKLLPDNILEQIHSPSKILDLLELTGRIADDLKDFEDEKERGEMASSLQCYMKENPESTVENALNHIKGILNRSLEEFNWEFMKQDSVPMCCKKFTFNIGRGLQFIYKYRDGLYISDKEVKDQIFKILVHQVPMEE
Protocol: as §3, §4, §5

SMILES | sesquiterpene products of δ-selinene synthase, % [1] [%] | sesquiterpene products of γ-humulene synthase, % [2] [%] | monoterpene product formed from geranyl diphosphate [3] | contribution to monoterpene products formed from geranyl diphosphate [4] [%]
CC1=CC[C@H]2[C@H]3[C@@H]1[C@]2(C)CC[C@H]3C(C)C [α-Copaene] | 0.1 | 0.1 | – | –
C=C(CCC=C(C)C)[C@@H]1CC=C(C)CC1 [β-Bisabolene] | 0.7 | 3.9 | – | –
C=C/C(C)=C/CC=C(C)C [E-ocimene] | – | – | not detectable | 22.4
